Measured values reported in patent publication US7521580B1, “Non-cytotoxic synthetic analogues of (1E, 6E)-1, 7-Bis (4-hydroxy-3-methoxyphenyl)-1, 6-heptadiene-3, 5-Dione and therapeutic applications thereof in cystic fibrosis” (Sami Labs Ltd., priority 2008, dated 2009).

Tests used:
wt-CFTR channel = biological target: T1, wt-CFTR channel (Homo sapiens, UniProt P13569); assay: Iodide efflux, wild type CFTR chloride channel activity in CHO-CFTR-wt cells; format: cell-based; conditions: 100 μM acute (no incubation) in presence of Forskolin 1 μM
T1 construct: expressed in transfected cells; host or cells: CHO-CFTR-wt cells
T1 sequence (P13569 whole entry): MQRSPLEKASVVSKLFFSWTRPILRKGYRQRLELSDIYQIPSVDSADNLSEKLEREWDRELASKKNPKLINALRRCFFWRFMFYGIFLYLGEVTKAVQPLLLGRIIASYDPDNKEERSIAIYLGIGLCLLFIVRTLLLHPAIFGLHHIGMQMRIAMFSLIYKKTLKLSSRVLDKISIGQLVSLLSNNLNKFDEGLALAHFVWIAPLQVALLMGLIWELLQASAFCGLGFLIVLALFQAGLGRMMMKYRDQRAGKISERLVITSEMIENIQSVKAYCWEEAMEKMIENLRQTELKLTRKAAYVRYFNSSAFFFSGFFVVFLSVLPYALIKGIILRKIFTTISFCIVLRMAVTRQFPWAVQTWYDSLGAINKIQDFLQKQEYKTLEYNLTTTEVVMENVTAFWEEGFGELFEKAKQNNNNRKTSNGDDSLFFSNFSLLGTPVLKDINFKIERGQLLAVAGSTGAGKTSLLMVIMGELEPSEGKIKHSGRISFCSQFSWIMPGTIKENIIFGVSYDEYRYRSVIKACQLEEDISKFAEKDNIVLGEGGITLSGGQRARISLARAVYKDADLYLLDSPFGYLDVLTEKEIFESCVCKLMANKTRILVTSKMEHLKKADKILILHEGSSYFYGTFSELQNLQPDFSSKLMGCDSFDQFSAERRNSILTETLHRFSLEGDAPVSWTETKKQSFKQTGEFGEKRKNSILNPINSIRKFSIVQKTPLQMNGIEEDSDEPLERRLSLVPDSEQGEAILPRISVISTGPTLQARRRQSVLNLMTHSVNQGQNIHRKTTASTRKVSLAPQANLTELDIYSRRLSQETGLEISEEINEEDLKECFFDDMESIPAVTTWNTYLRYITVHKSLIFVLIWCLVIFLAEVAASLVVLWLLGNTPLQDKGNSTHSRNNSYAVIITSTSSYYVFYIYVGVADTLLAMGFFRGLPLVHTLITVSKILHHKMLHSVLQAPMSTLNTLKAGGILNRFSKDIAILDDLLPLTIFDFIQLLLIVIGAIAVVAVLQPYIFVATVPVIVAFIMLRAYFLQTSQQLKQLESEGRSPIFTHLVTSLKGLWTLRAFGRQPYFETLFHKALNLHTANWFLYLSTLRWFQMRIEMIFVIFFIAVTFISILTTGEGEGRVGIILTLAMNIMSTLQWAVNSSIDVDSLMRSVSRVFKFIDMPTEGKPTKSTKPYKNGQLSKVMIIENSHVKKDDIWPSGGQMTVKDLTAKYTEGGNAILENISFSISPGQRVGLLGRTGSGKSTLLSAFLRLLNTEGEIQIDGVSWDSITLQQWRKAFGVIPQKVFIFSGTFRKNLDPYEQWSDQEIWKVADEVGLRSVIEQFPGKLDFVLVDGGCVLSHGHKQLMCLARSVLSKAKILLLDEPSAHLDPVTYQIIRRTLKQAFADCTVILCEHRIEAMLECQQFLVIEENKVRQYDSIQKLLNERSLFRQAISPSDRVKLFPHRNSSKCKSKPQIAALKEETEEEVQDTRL
Experimental: (§1) The human nasal airway epithelial cells JME/CF15 were cultured in 24-well plates to 90% confluence. (1E,6E)-1,7-Bis(3,5-di-tert-butyl-4-hydroxyphenyl)-1,6-heptadiene-3,5-dione was added at 100 μM for 2 hours, at 37° C., 5% CO2. After incubation, chloride channel activity was assayed by measuring the rate of radio labelled iodide (125 l) efflux using liquid handling robots. The compound was tested in quadruplicate. Cells were incubated in physiologic solution containing 1 μM Kl and 1 μCi Na 125 l/ml during 1 h at 37° C. Extra cellular 125 l was removed by 3 washes of cells, and the loss of intracellular 125 l is determined by removing the medium with physiological solution every minute for up to 9 min 6. A cocktail of forskolin (10 μM) plus genistein (30 μM) was added at the third minute to stimulate F508del-CFTR chloride channel activity. Statistics and curves were derived at using Graph Pad Software.
To test the potency to stimulate wt-CFTR channel activity, CHO-CFTR-wt cells were cultured in 24-well plates to 90% confluence. Iodide efflux experiments were carried as described above. (1E,6E)-1,7-Bis(3,5-di-tert-butyl-4-hydroxyphenyl)-1,6-heptadiene-3,5-dione was added in the third minute in the presence or absence of Forskolin (1 μM). The compound was tested in acute (no incubation) at 100 μM in presence of Forskolin 1 μM. […]

[1] = MTT assay of cellular cytotoxicity; format: cell-based; conditions: Chinese hamster, CHO-CFTR-wt cells, read-out: TC50; for CC50 at 2 h: 2 h incubation; for CC50 at 24 h: 24 h incubation
Experimental: The cytotoxicity of (1E,6E)-1,7-Bis(3,5-di-tert-butyl-4-hydroxyphenyl)-1,6-heptadiene-3,5-dione (representative of the molecules disclosed in the present invention) was assessed by MTT assay [[3-(4,5-dimethylthiazol-2-yl)-2,5-diphenyl tetrazolium bromide, measuring cellular dehydrogenase activity on CHO-CFTR-wt cell lines. The test is based on the principle that water soluble tetrazolium yellow salt MTT (Sigma®) is converted on purple formazan by mitochondrial dehydrogenase. Cells were grown to confluency in 96-well plates. After incubation with the test compound for 2 or 24 hours, at 37° C., […] of MTT (5 mg/ml) was added. After 4 h of incubation, culture medium was removed and 100 μl of DMSO per well added to solubilise formazan crystals. Optical density (OD) was measured at 570 nm and subtracted to these measured at 630 nm. The amount of purple formazan produced by treated cells is compared with these of untreated control cells (vehicle), dose-response curves were derived using GraphPad Software.

JME/CF15 cells = assay: Intracellular calcium mobilization (Fluo-4, confocal microscopy) in JME/CF15 cells; format: cell-based, human; conditions: 100 μM during 2 h, absence of extra cellular calcium
Source text: A number of epithelial chloride channels are calcium dependent. Therefore molecules which increase cytosolic calcium release or reduce calcium re-uptake by the intracellular stores may be beneficial to increase chloride secretion via a calcium-regulated chloride signaling pathway. Alternatively, a decrease in the activity calcium dependant proteins playing a vital role in retaining misfolded F508-CFTR in the ER may also seem a promising strategy in cystic fibrosis therapy.
JME/CF15 cells were loaded with 3 μM Fluo-4 acetoxymethyl (AM)ester for 20 min at room temperature in buffer solution containing: (in mM) 130 NaCl, 5.4 KCl, 2.5 CaCl2, 0.8 MgCl2, 5.6 glucose, 10 Hepes, pH 7.4 adjusted with Tris base), rinsed and allowed to equilibrate for 5-10 min. Ca2+ activity was recorded by confocal laser scanning microscopy using Bio-Rad MRC 1024 equipped with 15 mW Ar/Kr gas laser (Hemel Hempstead, UK). Maximal resolution was obtained with Olympus plan apo X60 oil, 1.4 NA, objective lens. Fluorescence signal collection was performed through the control software Lasersharp 3.2 (Bio-Rad). The resolution time was 30 s for the protocol in which cells are incubated 2 h in the presence of (1E,6E)-1,7-Bis(3,5-di-tert-butyl-4-hydroxyphenyl)-1,6-heptadiene-3,5-dione. All the experiments were performed at minimum on two different cell passages. […]

[2] = biological target: T2, F508del-CFTR chloride channel (Homo sapiens, UniProt P13569, DEL508-508); assay: Radiolabelled iodide efflux, F508del-CFTR chloride channel activity in JME/CF15 cells; format: cell-based; conditions: 100 μM for 2 hours, stimulated with forskolin 10 μM plus genistein 30 μM
T2 construct: endogenous in cells; host or cells: JME/CF15 human nasal airway epithelial cells
T2 sequence (P13569 with tags, fused parts or gaps DEL508-508): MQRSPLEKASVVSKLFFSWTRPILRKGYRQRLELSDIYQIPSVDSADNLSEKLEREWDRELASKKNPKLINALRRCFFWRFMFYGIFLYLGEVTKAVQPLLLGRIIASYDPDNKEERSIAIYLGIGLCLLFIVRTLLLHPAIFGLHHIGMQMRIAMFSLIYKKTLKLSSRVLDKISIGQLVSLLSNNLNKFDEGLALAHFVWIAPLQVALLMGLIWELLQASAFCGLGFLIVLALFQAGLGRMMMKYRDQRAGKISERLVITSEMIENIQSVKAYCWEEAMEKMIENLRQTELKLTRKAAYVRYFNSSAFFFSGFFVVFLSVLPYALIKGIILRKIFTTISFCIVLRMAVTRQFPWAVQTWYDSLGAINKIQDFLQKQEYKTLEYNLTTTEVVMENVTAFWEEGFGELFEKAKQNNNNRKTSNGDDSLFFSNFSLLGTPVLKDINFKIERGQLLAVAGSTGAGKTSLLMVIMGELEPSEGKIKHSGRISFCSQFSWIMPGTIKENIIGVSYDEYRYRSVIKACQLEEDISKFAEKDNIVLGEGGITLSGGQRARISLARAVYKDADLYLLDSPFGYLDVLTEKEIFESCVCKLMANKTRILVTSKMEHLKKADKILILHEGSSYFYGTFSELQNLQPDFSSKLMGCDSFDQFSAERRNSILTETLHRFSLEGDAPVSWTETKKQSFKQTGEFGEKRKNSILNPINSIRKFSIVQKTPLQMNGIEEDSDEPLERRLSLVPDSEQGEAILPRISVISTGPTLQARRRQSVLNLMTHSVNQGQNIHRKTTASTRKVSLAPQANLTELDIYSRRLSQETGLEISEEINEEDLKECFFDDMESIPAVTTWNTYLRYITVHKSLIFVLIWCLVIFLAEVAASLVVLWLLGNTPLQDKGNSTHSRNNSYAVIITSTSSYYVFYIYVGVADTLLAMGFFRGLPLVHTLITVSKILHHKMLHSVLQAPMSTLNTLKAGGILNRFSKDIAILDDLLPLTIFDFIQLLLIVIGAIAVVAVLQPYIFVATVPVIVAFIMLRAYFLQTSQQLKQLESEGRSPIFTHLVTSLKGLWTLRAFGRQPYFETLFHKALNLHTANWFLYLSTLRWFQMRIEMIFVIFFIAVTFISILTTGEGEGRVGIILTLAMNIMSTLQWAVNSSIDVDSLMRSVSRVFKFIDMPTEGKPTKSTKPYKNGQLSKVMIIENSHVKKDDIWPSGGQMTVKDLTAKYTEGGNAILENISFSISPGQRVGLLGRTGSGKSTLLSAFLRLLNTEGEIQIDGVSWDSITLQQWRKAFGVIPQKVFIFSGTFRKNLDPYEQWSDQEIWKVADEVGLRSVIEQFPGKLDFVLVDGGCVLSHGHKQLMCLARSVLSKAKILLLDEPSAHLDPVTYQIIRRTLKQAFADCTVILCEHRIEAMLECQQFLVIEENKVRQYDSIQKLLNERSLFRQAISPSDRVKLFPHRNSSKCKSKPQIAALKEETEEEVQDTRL
Experimental: as §1

Compound	wild-type CFTR chloride channel activity (wt-CFTR channel)	CC50 at 2 h [1] [µM]	CC50 at 24 h [1] [µM]	melting point [°C]	intracellular mobilization of Ca2+ (JME/CF15 cells)	restoration of F508del-CFTR protein at the plasma membrane (iodide efflux) [2]
CC(C)(C)c1cc(/C=C/C(=O)CC(=O)/C=C/c2cc(C(C)(C)C)c(O)c(C(C)(C)C)c2)cc(C(C)(C)C)c1O [(1E,6E)-1,7-Bis(3,5-di-tert-butyl-4-hydroxyphenyl)-1,6-heptadiene-3,5-dione]	insignificant wild-type CFTR chloride channel activity	> 100	> 100	192 to 196	induced intracellular mobilization of Ca^2+	able to restore the F508del-CFTR protein at the plasma membrane of CF cells
COc1cc(/C=C/C(=O)CC(=O)/C=C/c2ccc(O)c(OC)c2)ccc1O [Curcumin, (1E,6E)-1,7-Bis(4-hydroxy-3-methoxyphenyl)-1,6-heptadiene-3,5-dione, reference compound]	–	50.1 ± 1.1	42.7 ± 1	–	–	–
